Measured values published in patent US11547712B2, “Kinase inhibitor compounds and compositions and methods of use” (ICAHN SCHOOL OF MEDICINE AT MOUNT SINAI, priority 2017, dated 2023).
Read-outs that look alike come from different tables or passages of the source.

Assays:
[1] = molecular target: T1, DYRK1A (Homo sapiens (Human), UniProt Q13627); assay: FRET-based LanthaScreen Eu Kinase Binding Assay (Life Technologies); settings: read-out: Screening (30 μM) LifeTech: % DYRK1A inhibition at 30 μM
Procedure: (§1) DYRK1A Binding Assays. Compounds were tested for DYRK1A binding activity at two different commercial kinase profiling services, Life Technologies and DiscoverX. […] Compounds were screened for DYRK1A activity at a single concentration of 30 μM in duplicates.

[2] = molecular target: T1, DYRK1A; assay: KINOMEscan Assay (DiscoverX), DYRK1A binding; settings: for remaining binding at 30 µM: read-out: Screening (30 μM) DiscoverX: primary screen binding interactions, % DMSO Ctrl; for Kd: eleven serial three fold dilutions (in duplicate)
Procedure: as §1

Molecule	inhibition at 30 µM ([1]; 30 μM single concentration) [%]	remaining binding at 30 µM [2] [%]	inhibition at 30 µM [1] [%]	Kd [2] [nM]
CNC1=NN=C(c2ccc3[nH]c(=O)[nH]c3c2)CS1 [Compound 3-2, N-methyl-5-(benzo[d]imidazol-2(3H)-one)-6H-1,3,4-thiadiazin-2-amine]	63	0.5		
CCNC1=NN=C(c2ccc3[nH]c(=O)[nH]c3c2)CS1 [Compound 3-3, N-ethyl-5-(benzo[d]imidazol-2(3H)-one)-6H-1,3,4-thiadiazin-2-amine]	69	0		
CCCNC1=NN=C(c2ccc3[nH]c(=O)[nH]c3c2)CS1 [Compound 3-4, N-propyl-5-(benzo[d]imidazol-2(3H)-one)-6H-1,3,4-thiadiazin-2-amine]	48	2.9		
CCCCNC1=NN=C(c2ccc3[nH]c(=O)[nH]c3c2)CS1 [Compound 3-5, N-butyl-5-(benzo[d]imidazol-2(3H)-one)-6H-1,3,4-thiadiazin-2-amine]	24	0		
CC(C)NC1=NN=C(c2ccc3[nH]c(=O)[nH]c3c2)CS1 [Compound 3-6, N-isopropyl-5-(benzo[d]imidazol-2(3H)-one)-6H-1,3,4-thiadiazin-2-amine]	59	2.3		
CC(C)(C)NC1=NN=C(c2ccc3[nH]c(=O)[nH]c3c2)CS1 [Compound 3-7, N-t-butyl-5-(benzo[d]imidazol-2(3H)-one)-6H-1,3,4-thiadiazin-2-amine]	46	0.75		
O=c1[nH]c2ccc(C3=NN=C(NCc4ccc(Cl)cc4)SC3)cc2[nH]1 [Compound 3-12, N-(4-chlorobenzyl)-5-(benzo[d]imidazol-2(3H)-one)-6H-1,3,4-thiadiazin-2-amine]		19	93	185
O=c1[nH]c2ccc(C3=NN=C(NCc4cccc(Cl)c4)SC3)cc2[nH]1 [Compound 3-13, N-(3-chlorobenzyl)-5-(benzo[d]imidazol-2(3H)-one)-6H-1,3,4-thiadiazin-2-amine]				420
O=c1[nH]c2ccc(C3=NN=C(NCc4ccccc4Cl)SC3)cc2[nH]1 [Compound 3-14, N-(2-chlorobenzyl)-5-(benzo[d]imidazol-2(3H)-one)-6H-1,3,4-thiadiazin-2-amine]				840
O=c1[nH]c2ccc(C3=NN=C(NCc4ccc(F)cc4)SC3)cc2[nH]1 [Compound 3-15, N-(4-fluorobenzyl)-5-(benzo[d]imidazol-2(3H)-one)-6H-1,3,4-thiadiazin-2-amine]		8.9	95	
O=c1[nH]c2ccc(C3=NN=C(NCc4cccc(F)c4)SC3)cc2[nH]1 [Compound 3-16, N-(3-fluorobenzyl)-5-(benzo[d]imidazol-2(3H)-one)-6H-1,3,4-thiadiazin-2-amine]				900
O=c1[nH]c2ccc(C3=NN=C(NCc4ccc(C(F)(F)F)cc4)SC3)cc2[nH]1 [Compound 3-18, N-(4-trifluoromethylbenzyl)-5-(benzo[d]imidazol-2(3H)-one)-6H-1,3,4-thiadiazin-2-amine]		40	53	
O=c1[nH]c2ccc(C3=NN=C(NCc4cccc(C(F)(F)F)c4)SC3)cc2[nH]1 [Compound 3-19, N-(3-trifluoromethylbenzyl)-5-(benzo[d]imidazol-2(3H)-one)-6H-1,3,4-thiadiazin-2-amine]		23	20	
O=c1[nH]c2ccc(C3=NN=C(NCc4ccccc4C(F)(F)F)SC3)cc2[nH]1 [Compound 3-20, N-(2-trifluoromethylbenzyl)-5-(benzo[d]imidazol-2(3H)-one)-6H-1,3,4-thiadiazin-2-amine]		38	24	7700
N#Cc1ccc(CNC2=NN=C(c3ccc4[nH]c(=O)[nH]c4c3)CS2)cc1 [Compound 3-21, N-(4-cyanobenzyl)-5-(benzo[d]imidazol-2(3H)-one)-6H-1,3,4-thiadiazin-2-amine]		12	47	
N#Cc1cccc(CNC2=NN=C(c3ccc4[nH]c(=O)[nH]c4c3)CS2)c1 [Compound 3-22, N-(3-cyanobenzyl)-5-(benzo[d]imidazol-2(3H)-one)-6H-1,3,4-thiadiazin-2-amine]		12	69	
O=c1[nH]c2ccc(C3=NN=C(NCc4cccnc4)SC3)cc2[nH]1 [Compound 3-23, N-(pyridine-3yl)methyl-5-(benzo[d]imidazol-2(3H)-one)-6H-1,3,4-thiadiazin-2-amine]		4.2	74	860
O=c1[nH]c2ccc(C3=NN=C(NCc4ccncc4)SC3)cc2[nH]1 [Compound 3-24, N-(pyridine-4yl)methyl-5-(benzo[d]imidazol-2(3H)-one)-6H-1,3,4-thiadiazin-2-amine]				2200
CC(NC1=NN=C(c2ccc3[nH]c(=O)[nH]c3c2)CS1)c1ccccc1 (centres unmarked) [Compound 3-25, N-(1-phenylethyl)-5-(benzo[d]imidazol-2(3H)-one)-6H-1,3,4-thiadiazin-2-amine]		3.7	57	
CC(NC1=NN=C(c2ccc3[nH]c(=O)[nH]c3c2)CS1)c1ccc(F)cc1 (centres unmarked) [Compound 3-26, N-(1-(4-fluorophenyl)ethyl)-5-(benzo[d]imidazol-2(3H)-one)-6H-1,3,4-thiadiazin-2-amine]				2300
O=c1[nH]c2ccc(C3=NN=C(Nc4ccccc4)SC3)cc2[nH]1 [Compound 3-28, N-phenyl-5-(benzo[d]imidazol-2(3H)-one)-6H-1,3,4-thiadiazin-2-amine]		41	39	19000
O=c1[nH]c2ccc(C3=NN=C(Nc4cccc(F)c4)SC3)cc2[nH]1 [Compound 3-29, N-(3-fluorophenyl)-5-(benzo[d]imidazol-2(3H)-one)-6H-1,3,4-thiadiazin-2-amine]				7000
O=c1[nH]c2ccc(C3=NN=C(Nc4cccc(C(F)(F)F)c4)SC3)cc2[nH]1 [Compound 3-30, N-(3-trifluoromethylphenyl)-5-(benzo[d]imidazol-2(3H)-one)-6H-1,3,4-thiadiazin-2-amine]				14000
N#Cc1cccc(NC2=NN=C(c3ccc4[nH]c(=O)[nH]c4c3)CS2)c1 [Compound 3-31, N-(3-cyanophenyl)-5-(benzo[d]imidazol-2(3H)-one)-6H-1,3,4-thiadiazin-2-amine]				3800
O=c1[nH]c2ccc(C3=NN=C(NCCc4ccccc4)SC3)cc2[nH]1 [Compound 3-34, N-(2-phenylethyl)-5-(benzo[d]imidazol-2(3H)-one)-6H-1,3,4-thiadiazin-2-amine]		0.5	61	1600
O=c1[nH]c2ccc(C3=NN=C(NCCc4ccccn4)SC3)cc2[nH]1 [Compound 3-38, N-(2-(pyridine-1-yl)ethyl)-5-(benzo[d]imidazol-2(3H)-one)-6H-1,3,4-thiadiazin-2-amine]		8.4	87	1600
O=c1[nH]c2ccc(C3=NN=C(NCCc4cccnc4)SC3)cc2[nH]1 [Compound 3-39, N-(2-(pyridine-3-yl)ethyl)-5-(benzo[d]imidazol-2(3H)-one)-6H-1,3,4-thiadiazin-2-amine]				2200
O=c1[nH]c2ccc(C3=NN=C(NCc4cccc5ccccc45)SC3)cc2[nH]1 [Compound 3-41, N-(1-naphthylmethyl)-5-(benzo[d]imidazol-2(3H)-one)-6H-1,3,4-thiadiazin-2-amine]		36	11	7300
NC(=O)c1cccc(CNC2=NN=C(c3ccc4[nH]c(=O)[nH]c4c3)CS2)c1 [Compound 4-2, N-(3-carboxyaminobenzyl)-5-(benzo[d]imidazol-2(3H)-one)-6H-1,3,4-thiadiazin-2-amine]				440
N-(3-phenylpropyl)-5-(benzo[d]imidazol-2(3H)-one)-6H-1,3,4-thiadiazin-2-amine [Compound 3-37]				950
